Test results: PubChem BioAssay AID1259407 (Chemical Carcinogenesis Research Information System (CCRIS), 2018)
The source made the active and inactive calls. The rule behind the calls is not given here.

Tested on: CCRIS mutagenicity, Ames/micronucleus/aberration tests
Assay: CCRIS mutagenicity studies
[1] = Test System: AMES SALMONELLA TYPHIMURIUM, Strain/Indicator: TA98, Metabolic Activation: NONE, Method: PREINCUBATION
[2] = Test System: AMES SALMONELLA TYPHIMURIUM, Strain/Indicator: TA100, Metabolic Activation: NONE, Method: PREINCUBATION
[3] = Test System: AMES SALMONELLA TYPHIMURIUM, Strain/Indicator: TA98, Metabolic Activation: NONE, Method: STANDARD PLATE
[4] = Test System: AMES SALMONELLA TYPHIMURIUM, Strain/Indicator: TA98, Metabolic Activation: RAT, LIVER, S-9, AROCLOR 1254, Method: STANDARD PLATE
[5] = Test System: AMES SALMONELLA TYPHIMURIUM, Strain/Indicator: TA100, Metabolic Activation: NONE, Method: STANDARD PLATE
[6] = Test System: AMES SALMONELLA TYPHIMURIUM, Strain/Indicator: TA100, Metabolic Activation: RAT, LIVER, S-9, AROCLOR 1254, Method: STANDARD PLATE
[7] = Test System: AMES SALMONELLA TYPHIMURIUM, Strain/Indicator: TA1535, Metabolic Activation: NONE, Method: STANDARD PLATE
[8] = Test System: AMES SALMONELLA TYPHIMURIUM, Strain/Indicator: TA1535, Metabolic Activation: RAT, LIVER, S-9, AROCLOR 1254, Method: STANDARD PLATE
[9] = Test System: AMES SALMONELLA TYPHIMURIUM, Strain/Indicator: TA1537, Metabolic Activation: NONE, Method: STANDARD PLATE
[10] = Test System: AMES SALMONELLA TYPHIMURIUM, Strain/Indicator: TA1537, Metabolic Activation: RAT, LIVER, S-9, AROCLOR 1254, Method: STANDARD PLATE

`CC1=CC(=O)C=C(C)C1=O` was tested, and the mutagenic call [1] was “inactive; negative”, the mutagenic call (Test System: AMES SALMONELLA TYPHIMURIUM, Strain/Indicator: TA98, Metabolic Activation: RAT, LIVER, S-9, PHENOBARBITAL AND 5,6-BENZOFLAVONE, Method: PREINCUBATION) was “inactive; negative” and the mutagenic call [2] was “inactive; negative”. For the same compound, the mutagenic call (Test System: AMES SALMONELLA TYPHIMURIUM, Strain/Indicator: TA100, Metabolic Activation: RAT, LIVER, S-9, PHENOBARBITAL AND 5,6-BENZOFLAVONE, Method: PREINCUBATION) was “inactive; negative”, the mutagenic call (Test System: AMES SALMONELLA TYPHIMURIUM, Strain/Indicator: TA102, Metabolic Activation: NONE, Method: PREINCUBATION) was “inactive; negative” and the mutagenic call (Test System: AMES SALMONELLA TYPHIMURIUM, Strain/Indicator: TA102, Metabolic Activation: RAT, LIVER, S-9, PHENOBARBITAL AND 5,6-BENZOFLAVONE, Method: PREINCUBATION) was “inactive; negative”. The mutagenic call (Test System: AMES SALMONELLA TYPHIMURIUM, Strain/Indicator: TA104, Metabolic Activation: NONE, Method: PREINCUBATION) was “inactive; negative”, the mutagenic call (Test System: AMES SALMONELLA TYPHIMURIUM, Strain/Indicator: TA104, Metabolic Activation: RAT, LIVER, S-9, PHENOBARBITAL AND 5,6-BENZOFLAVONE, Method: PREINCUBATION) was “inactive; negative” and the mutagenic call (Test System: AMES SALMONELLA TYPHIMURIUM, Strain/Indicator: TA2637, Metabolic Activation: NONE, Method: PREINCUBATION) was “active; positive”. For the same compound, the mutagenic call (Test System: AMES SALMONELLA TYPHIMURIUM, Strain/Indicator: TA2637, Metabolic Activation: RAT, LIVER, S-9, PHENOBARBITAL AND 5,6-BENZOFLAVONE, Method: PREINCUBATION) was “inactive; negative”.

`O=C(CCNNC(=O)c1ccncc1)NCc1ccccc1` was tested, and the mutagenic call [3] was “inactive; negative”, the mutagenic call [4] was “inactive; negative” and the mutagenic call [5] was “active; positive”. The mutagenic call [6] was “active; positive”, the mutagenic call [7] was “active; positive” and the mutagenic call [8] was “active; positive”. The mutagenic call [9] was “inactive; negative” and the mutagenic call [10] was “inactive; negative”.

With `Cl/C=C/C[N+]12CN3CN(CN(C3)C1)C2` the mutagenic call (Test System: AMES SALMONELLA TYPHIMURIUM, Strain/Indicator: TA97, Metabolic Activation: HAMSTER, LIVER, S-9, AROCLOR 1254 (5, 10 OR 30%), Method: PREINCUBATION) was “inactive; negative”, the mutagenic call (Test System: AMES SALMONELLA TYPHIMURIUM, Strain/Indicator: TA97, Metabolic Activation: NONE, Method: PREINCUBATION) was “inactive; negative” and the mutagenic call (Test System: AMES SALMONELLA TYPHIMURIUM, Strain/Indicator: TA97, Metabolic Activation: RAT, LIVER, S-9, AROCLOR 1254 (5, 10 OR 30%), Method: PREINCUBATION) was “inactive; negative”. For the same compound, the mutagenic call (Test System: AMES SALMONELLA TYPHIMURIUM, Strain/Indicator: TA98, Metabolic Activation: HAMSTER, LIVER, S-9, AROCLOR 1254 (5 OR 30%), Method: PREINCUBATION) was “inactive; negative”, the mutagenic call (Test System: AMES SALMONELLA TYPHIMURIUM, Strain/Indicator: TA98, Metabolic Activation: HAMSTER, LIVER, S-9, AROCLOR 1254 (10%), Method: PREINCUBATION) was “inactive; negative” and the mutagenic call (Test System: AMES SALMONELLA TYPHIMURIUM, Strain/Indicator: TA98, Metabolic Activation: HAMSTER, LIVER, S-9, AROCLOR 1254, Method: STANDARD PLATE) was “inactive; negative”. For the same compound, the mutagenic call [1] was “active; positive”, the mutagenic call [3] was “inactive; negative” and the mutagenic call (Test System: AMES SALMONELLA TYPHIMURIUM, Strain/Indicator: TA98, Metabolic Activation: RAT, LIVER, S-9, AROCLOR 1254 (5 OR 30%), Method: PREINCUBATION) was “inactive; negative”. The mutagenic call (Test System: AMES SALMONELLA TYPHIMURIUM, Strain/Indicator: TA98, Metabolic Activation: RAT, LIVER, S-9, AROCLOR 1254 (10%), Method: PREINCUBATION) was “inactive; negative”, the mutagenic call [4] was “inactive; negative” and the mutagenic call (Test System: AMES SALMONELLA TYPHIMURIUM, Strain/Indicator: TA100, Metabolic Activation: HAMSTER, LIVER, S-9, AROCLOR 1254 (5 OR 30%), Method: PREINCUBATION) was “inactive; negative”. The mutagenic call (Test System: AMES SALMONELLA TYPHIMURIUM, Strain/Indicator: TA100, Metabolic Activation: HAMSTER, LIVER, S-9, AROCLOR 1254 (10%), Method: PREINCUBATION) was “inactive; negative”, the mutagenic call (Test System: AMES SALMONELLA TYPHIMURIUM, Strain/Indicator: TA100, Metabolic Activation: HAMSTER, LIVER, S-9, AROCLOR 1254, Method: STANDARD PLATE) was “inactive; negative” and the mutagenic call [2] was “inactive; negative”. The mutagenic call [5] was “inactive; negative”, the mutagenic call (Test System: AMES SALMONELLA TYPHIMURIUM, Strain/Indicator: TA100, Metabolic Activation: RAT, LIVER, S-9, AROCLOR 1254 (5 OR 30%), Method: PREINCUBATION) was “inactive; negative” and the mutagenic call (Test System: AMES SALMONELLA TYPHIMURIUM, Strain/Indicator: TA100, Metabolic Activation: RAT, LIVER, S-9, AROCLOR 1254 (10%), Method: PREINCUBATION) was “inactive; negative”. The mutagenic call [6] was “inactive; negative”, the mutagenic call (Test System: AMES SALMONELLA TYPHIMURIUM, Strain/Indicator: TA1535, Metabolic Activation: HAMSTER, LIVER, S-9, AROCLOR 1254 (10%), Method: PREINCUBATION) was “inactive; negative” and the mutagenic call (Test System: AMES SALMONELLA TYPHIMURIUM, Strain/Indicator: TA1535, Metabolic Activation: HAMSTER, LIVER, S-9, AROCLOR 1254, Method: STANDARD PLATE) was “inactive; negative”. The mutagenic call (Test System: AMES SALMONELLA TYPHIMURIUM, Strain/Indicator: TA1535, Metabolic Activation: NONE, Method: PREINCUBATION) was “inactive; negative”, the mutagenic call [7] was “inactive; negative” and the mutagenic call (Test System: AMES SALMONELLA TYPHIMURIUM, Strain/Indicator: TA1535, Metabolic Activation: RAT, LIVER, S-9, AROCLOR 1254 (10%), Method: PREINCUBATION) was “inactive; negative”. For the same compound, the mutagenic call [8] was “inactive; negative”, the mutagenic call (Test System: AMES SALMONELLA TYPHIMURIUM, Strain/Indicator: TA1537, Metabolic Activation: HAMSTER, LIVER, S-9, AROCLOR 1254 (5, 10 OR 30%), Method: PREINCUBATION) was “inactive; negative” and the mutagenic call (Test System: AMES SALMONELLA TYPHIMURIUM, Strain/Indicator: TA1537, Metabolic Activation: HAMSTER, LIVER, S-9, AROCLOR 1254, Method: STANDARD PLATE) was “inactive; negative”. The mutagenic call [9] was “inactive; negative”, the mutagenic call (Test System: AMES SALMONELLA TYPHIMURIUM, Strain/Indicator: TA1537, Metabolic Activation: RAT, LIVER, S-9, AROCLOR 1254 (5, 10 OR 30%), Method: PREINCUBATION) was “inactive; negative” and the mutagenic call [10] was “inactive; negative”. For the same compound, the mutagenic call (Test System: AMES SALMONELLA TYPHIMURIUM, Strain/Indicator: TA1538, Metabolic Activation: HAMSTER, LIVER, S-9, AROCLOR 1254, Method: STANDARD PLATE) was “inactive; negative”, the mutagenic call (Test System: AMES SALMONELLA TYPHIMURIUM, Strain/Indicator: TA1538, Metabolic Activation: NONE, Method: STANDARD PLATE) was “inactive; negative” and the mutagenic call (Test System: AMES SALMONELLA TYPHIMURIUM, Strain/Indicator: TA1538, Metabolic Activation: RAT, LIVER, S-9, AROCLOR 1254, Method: STANDARD PLATE) was “inactive; negative”. For the same compound, the mutagenic call (Test System: MOUSE LYMPHOMA, Strain/Indicator: L5178Y (TK+/TK-), Metabolic Activation: NONE, Method: SUSPENSION/PLATE) was “active; positive. reevaluation of results: positive” and the mutagenic call (Test System: MOUSE LYMPHOMA, Strain/Indicator: L5178Y (TK+/TK-), Metabolic Activation: RAT, LIVER, S-9, AROCLOR 1254, Method: SUSPENSION/PLATE) was “active; positive. reevaluation of results: positive”.
